Results taken from ChEMBL document CHEMBL5214972, “Design and evaluation of novel analogs of 2-amino-4-boronobutanoic acid (ABBA) as inhibitors of human gamma-glutamyl transpeptidase” (Bioorg Med Chem, 2022).

Experiments:
[1] = biological target: T1, Glutathione hydrolase 1 proenzyme (Homo sapiens, UniProt P19440); test: Inhibition of human GGT1 transpeptidation in Pichia pastoris using L-GpNA as substrate in presence of Gly-Gly
[2] = Inhibition of bovine GGT1 transpeptidation using gamma-glutamyl-p-nitroanilide in presence of Gly-Gly; design: species or system Bos taurus
[3] = biological target: T1, Glutathione hydrolase 1 proenzyme; test: Inhibition of human GGT1 expressed in Pichia pastoris assessed as inhibition of GSH hydrolysis measured by L-glutamate release assay

T1 sequence (P19440 1-380 limits assumed): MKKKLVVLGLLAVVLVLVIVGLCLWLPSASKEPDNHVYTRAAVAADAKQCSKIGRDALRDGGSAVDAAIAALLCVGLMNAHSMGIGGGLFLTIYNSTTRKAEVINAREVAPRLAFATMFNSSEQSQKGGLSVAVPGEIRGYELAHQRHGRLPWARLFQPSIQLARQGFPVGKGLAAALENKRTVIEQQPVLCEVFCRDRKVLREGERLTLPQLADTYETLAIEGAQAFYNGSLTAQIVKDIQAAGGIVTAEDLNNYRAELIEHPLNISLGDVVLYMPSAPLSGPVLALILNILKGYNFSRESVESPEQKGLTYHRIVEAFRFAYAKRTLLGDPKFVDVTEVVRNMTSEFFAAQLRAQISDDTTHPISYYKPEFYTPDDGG
T1 sequence (P19440 381-569 limits assumed): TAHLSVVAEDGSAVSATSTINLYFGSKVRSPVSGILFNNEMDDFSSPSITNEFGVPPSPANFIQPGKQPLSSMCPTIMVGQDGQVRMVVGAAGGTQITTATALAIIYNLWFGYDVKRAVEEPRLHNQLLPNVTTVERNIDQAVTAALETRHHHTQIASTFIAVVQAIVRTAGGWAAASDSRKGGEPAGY

`N[C@@H](CCB(O)O)C(=O)O` gave a Ki [1] of 0.0054 µM, a Ki [2] of 0.017 µM and a Ki [3] of 0.025 µM.
`O=C(O)[C@@H](CCB(O)O)NCc1ccc(S(=O)(=O)Nc2ccccc2)cc1` showed a Ki [1] of 173 µM.
With `NCCN[C@H](CCB(O)O)C(=O)O` the Ki [1] was 46 µM and the Ki [3] was 260 µM.
With `O=C(O)[C@@H](CCB(O)O)NCc1c[nH]cn1` the Ki [1] was 26 µM and the Ki [3] was 87 µM.
`COc1ccc(CN[C@H](CCB(O)O)C(=O)O)cc1` showed a Ki [1] of 343 µM.
Molecule `N[C@H](CN[C@H](CCB(O)O)C(=O)O)Cc1ccccc1` has a Ki [1] of 61 µM.
`O=C(O)c1cccc(CN[C@H](CCB(O)O)C(=O)O)c1` showed a Ki [1] of 589 µM.
In the case of `N[C@@H](CN[C@H](CCB(O)O)C(=O)O)Cc1ccccc1`, the Ki [1] is reported as 88 µM and the Ki [3] is reported as 508 µM.
`O=C(O)[C@@H](CCB(O)O)NCCc1ccccc1` showed a Ki [1] of 220 µM and a Ki [3] of 356 µM.
With `O=C(O)[C@@H](CCB(O)O)NCc1ccccc1` the Ki [1] was 202 µM and the Ki [3] was 2150 µM.
`N[C@H](CCB(O)O)C(=O)O` showed a Ki [1] of 0.045 µM and a Ki [3] of 0.077 µM.
`C[C@@H](N)CN[C@H](CCB(O)O)C(=O)O` showed a Ki [1] of 254 µM and a Ki [3] greater than 1000 µM.
Molecule `O=C(O)[C@@H](CCB(O)O)NCCCc1ccccc1` has a Ki [1] of 49 µM and a Ki [3] of 108 µM.
